Data on two molecules can be found in patent US20240325303A1, “KETOROLAC LIQUID COMPOSITION, PREPARATION METHOD THEREFOR, AND APPLICATION THEREOF” (SHANGHAI AURORA BIOTECHNOLOGY CO., LTD., priority 2021, published 2024).

For data set [1] the following is noted: compared with morphine; cited from earlier work.
The conditions of data set [2]: standard animal models for analgesic effect; cited from earlier work.
For data set [3] the following is noted: multiple tests; cited from earlier work.
A further data set relates to human plasma protein. Description: in vitro. The procedure:
Samples at the dosing and receiving ends and at the preparation instant (0 h) were assayed by LC-MS/MS, and the plasma protein binding (PPB) rates and the recovery rates were calculated based on the assay results. The plasma samples and PBS samples prepared from the test samples and the commercially available controls were incubated at 37° C. for 6 h with oscillation (100 rpm) and then assayed for stability.

Turning to `O=C(c1ccccc1)c1ccc2n1CCC2C(=O)O` (centres unmarked) [Ketorolac tromethamine], the relieving postsurgical pain entry in data set [1] is “superior to morphine”. In data set [2], the “analgesic activity compared with indomethacin, naproxen, phenylbutazone” value is “stronger than that of indomethacin and naproxen, and equivalent to or better than that of phenylbutazone”; the “analgesic activity relative to aspirin” value is on record as 800 times. The “anti-inflammatory activity compared with indomethacin, naproxen, phenylbutazone” value in data set [3] is “equivalent to or stronger than that of indomethacin, stronger than that of naproxen, and significantly better than that of phenylbutazone”.

Turning to `CC(=O)CC(c1ccccc1)c1c(O)c2ccccc2oc1=O` (centres unmarked) [Warfarin], the recovery at 6 h, 300 ng/mL with human plasma protein was determined as 96.2%.
